Source: PMC8050276, “Estradiol analogs attenuate autophagy, cell migration and invasion by direct and selective inhibition of TRPML1, independent of estrogen receptors” (Scientific Reports, 2021)
Entries after “also recorded” stand apart in the source; their conditions may differ. Like-named read-outs stand apart in the source and are kept apart here.

Experiments:
[1] = tested on: TRPC3, 4, 5, 6, and 7; TRPM2, 3, and 8; TRPV1, 2, 3, and 4; assay: Fluo-4 counter screen against other TRP channels stably expressed in HEK293; format: cell-based; details: most channels; activated with known ligands
hTRPML2 = target: T1, hTRPML2 (Homo sapiens, UniProt Q8IZK6); assay: Whole-cell patch-clamp, tetracycline-inducible HEK293 hTRPML2; format: cell-based; details: 30 µM ML-SA1, pH 7.4; read-out: TRPML2 IC50, whole-cell patch-clamp
T1 construct: host or cells: HEK293, FLP-in-Tet-On, tetracycline-induced
T1 sequence (Q8IZK6 1-566): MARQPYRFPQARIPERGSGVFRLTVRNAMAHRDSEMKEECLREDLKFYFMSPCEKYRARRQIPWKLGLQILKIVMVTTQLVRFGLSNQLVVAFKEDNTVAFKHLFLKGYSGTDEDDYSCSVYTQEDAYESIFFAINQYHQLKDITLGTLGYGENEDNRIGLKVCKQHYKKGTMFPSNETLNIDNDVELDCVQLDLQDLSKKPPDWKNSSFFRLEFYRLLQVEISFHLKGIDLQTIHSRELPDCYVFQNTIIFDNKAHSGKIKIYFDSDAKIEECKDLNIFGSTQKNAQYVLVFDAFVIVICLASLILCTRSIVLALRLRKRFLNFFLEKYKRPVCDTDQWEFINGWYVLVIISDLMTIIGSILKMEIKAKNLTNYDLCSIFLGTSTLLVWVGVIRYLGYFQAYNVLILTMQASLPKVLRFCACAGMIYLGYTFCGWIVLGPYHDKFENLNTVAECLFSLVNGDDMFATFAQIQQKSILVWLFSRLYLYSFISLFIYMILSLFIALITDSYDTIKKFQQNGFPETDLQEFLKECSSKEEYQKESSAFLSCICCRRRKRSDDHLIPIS
Method: Experiments were performed as described previously[20],[42]. In brief, cells were cultured on coverslips (Fisherbrand, Fisher Scientific) in complete DMEM medium with 10% FBS (Thermo Fisher). HEK293 cells expressing the desired channel protein were patch-clamped after overnight induction with tetracycline (1 µg/mL). […] The low pH bath solution contained (mM) 150 Na-Gluconate, 5 KCl, 2 CaCl2, 1 MgCl2, 10 glucose, 10 HEPES and 10 MES (pH 4.6). Whole‐cell currents were recorded using a Multiclamp 700B amplifier (Molecular Devices) with low‐pass filtering at 3 kHz. […] Current recording was done with WinWCP5.2.7 (University of Strathclyde, UK) software, and analysis was done with the help of a customized Igor pro program (WaveMetrics).

hTRPML1∆NC-YFP [2] = format: cell-based, human; details: for TRPML1:TRPML2 fold selectivity / TRPML1:TRPML3 fold selectivity: ratio of Fluo-4 IC50 values; for TRPML isoform selectivity profile: TRPML1, 2, 3 and TPC2, Fluo-4
hTRPML1∆NC-YFP [3] = target: hTRPML1∆NC-YFP (Homo sapiens, UniProt Q9GZU1); format: cell-based
Sequence of hTRPML1∆NC-YFP (Homo sapiens, UniProt Q9GZU1) (Q9GZU1 whole entry): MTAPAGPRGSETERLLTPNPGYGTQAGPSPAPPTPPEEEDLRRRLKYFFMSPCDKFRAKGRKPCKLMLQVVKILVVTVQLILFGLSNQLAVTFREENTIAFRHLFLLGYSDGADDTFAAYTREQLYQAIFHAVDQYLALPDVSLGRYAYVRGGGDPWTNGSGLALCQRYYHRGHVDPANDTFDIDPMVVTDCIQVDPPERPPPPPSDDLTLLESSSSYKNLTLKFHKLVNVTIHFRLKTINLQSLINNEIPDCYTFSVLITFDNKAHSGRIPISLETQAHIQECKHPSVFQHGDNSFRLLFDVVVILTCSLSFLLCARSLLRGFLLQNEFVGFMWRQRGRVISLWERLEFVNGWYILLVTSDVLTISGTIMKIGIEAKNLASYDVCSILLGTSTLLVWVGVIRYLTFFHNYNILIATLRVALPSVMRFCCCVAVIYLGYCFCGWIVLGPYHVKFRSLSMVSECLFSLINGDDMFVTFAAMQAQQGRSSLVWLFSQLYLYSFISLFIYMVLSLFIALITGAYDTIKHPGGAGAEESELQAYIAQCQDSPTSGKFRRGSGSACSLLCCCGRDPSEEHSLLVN

hTPC2L11A/L12A-RFP = target: T2, hTPC2L11A/L12A-RFP (Homo sapiens, UniProt Q8NHX9, L11A/L12A); assay: Single cell Fura-2 calcium imaging, HEK293 stably expressing hTPC2L11A/L12A-RFP; format: cell-based; details: compound alone or 10 µM after TPC2-A1-N (10 µM)
T2 construct: expressed in transfected cells
T2 sequence (Q8NHX9 whole entry L11A/L12A): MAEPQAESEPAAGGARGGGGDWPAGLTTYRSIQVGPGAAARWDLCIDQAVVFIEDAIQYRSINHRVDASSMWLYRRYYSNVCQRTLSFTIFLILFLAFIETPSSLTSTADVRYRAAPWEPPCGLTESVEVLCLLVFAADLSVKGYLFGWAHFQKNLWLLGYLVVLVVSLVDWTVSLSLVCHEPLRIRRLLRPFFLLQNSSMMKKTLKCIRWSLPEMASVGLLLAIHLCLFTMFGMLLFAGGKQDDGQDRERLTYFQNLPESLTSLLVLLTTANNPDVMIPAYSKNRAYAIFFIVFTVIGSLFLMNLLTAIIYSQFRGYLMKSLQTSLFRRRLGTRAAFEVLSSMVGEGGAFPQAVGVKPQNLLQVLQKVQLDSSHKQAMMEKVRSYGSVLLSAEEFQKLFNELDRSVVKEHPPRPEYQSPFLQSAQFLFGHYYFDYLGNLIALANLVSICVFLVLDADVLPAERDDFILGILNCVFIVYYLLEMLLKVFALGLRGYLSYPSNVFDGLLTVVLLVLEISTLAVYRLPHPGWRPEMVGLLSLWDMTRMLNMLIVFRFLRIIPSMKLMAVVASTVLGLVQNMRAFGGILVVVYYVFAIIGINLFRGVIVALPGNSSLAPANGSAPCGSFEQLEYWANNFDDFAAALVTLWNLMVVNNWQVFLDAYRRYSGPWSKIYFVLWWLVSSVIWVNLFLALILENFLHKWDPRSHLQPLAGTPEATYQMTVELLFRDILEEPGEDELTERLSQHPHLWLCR
Method: Single cell Ca^2+ imaging experiments were performed using Fura-2 as previously described. HEK293 cells stably expressing hTRPML1∆NC-YFP, hTRPML2-YFP, hTPPML3-YFP or hTPC2L11A/L12A-RFP (22, 24) were cultured at 37 °C with 5% of CO2 in Dulbecco’s modified Eagle medium (Thermo Fisher), supplemented with 10% fetal bovine serum, 100 U/mL penicillin, and 0.1 mg/mL streptomycin. Cells were plated onto poly-L-lysine (sigma)-coated glass coverslips and grown for 2–3 days. For Ca^2+ imaging experiments cells were loaded for 1 h at room temperature with Fura-2 AM (4.0 µM) and 0.005% (v/v) pluronic acid (both from Thermo Fisher) in HEPES-buffered solution (HBS) comprising 138 mM NaCl, 6 mM KCl, 2 mM MgCl2, 2 mM CaCl2, 10 mM HEPES, and 5.5 mM D-glucose (adjusted to pH 7.4 with NaOH). After loading, cells were washed with HBS and mounted in an imaging chamber. All recordings were performed in HBS. Ca^2+ imaging was performed using a Leica DMi8 live cell microscope. Fura-2 was excited at 340 nm/380 nm. Emitted fluorescence was captured using 515 nm long-pass filter. Compounds were pre diluted in DMSO and stored as 10 mM stock solutions at − 20 °C, not exceeding three months. Working solutions were prepared directly before using by dilution with HBS.

[4] = read-out: TRPML1 IC50, Fluo-4, 5 µM ML-SA1, Fig. 2a/4, Table S1

Structure (SMILES) | IC50 at other TRP channels [1] | IC50 (hTRPML2) [µM] | primary screen result (hTRPML1∆NC-YFP [2]; 20 µM compound, 5 µM ML-SA1, TRPML1 and TRPML3) | TRPML1 versus TRPML3 selectivity (hTRPML1∆NC-YFP [2]; Fluo-4, TRPML1 vs TRPML3, 5 µM ML-SA1) | TRPML1:TRPML2 fold selectivity (hTRPML1∆NC-YFP [2]) [fold] | TRPML1:TRPML3 fold selectivity (hTRPML1∆NC-YFP [2]) [fold] | inhibitory effect on TRPML1 (hTRPML1∆NC-YFP [3]; 12.5 µM compound, 5 µM ML-SA1, Fig. 1f) | IC50 (hTRPML1∆NC-YFP [3]; read-out: TRPML1 IC50, concentration-response retest of screening hits and steroids, Fluo-4, 5 µM ML-SA1, Fig. 1b-e, S1) [µM] | effect on hTPC2, Fura-2 (hTPC2L11A/L12A-RFP) | TRPML isoform selectivity profile (hTRPML1∆NC-YFP [2]) | IC50 (hTRPML1∆NC-YFP [3]; [4]) [µM]
COc1ccc2c(c1)CC[C@@H]1[C@@H]2CC[C@]2(C)[C@@H](O)CC[C@@H]12 [EDME, 17β-estradiol methyl ether] | no meaningful IC50s | 3.8 | TRPML1 selective hit | highly TRPML1-selective | 9.14 | 30.47 | completely blocks TRPML1 | 0.5 |  |  | 
C=Cc1ccc2c(c1)CC[C@@H]1[C@@H]2CC[C@]2(C)[C@@H](O)CC[C@@H]12 [PRU-10] |  |  |  |  | 13.17 | 38.61 |  |  | Neither an activating nor a blocking effect | further improved selectivity profile compared to EDME; also recorded: good TRPML isoform selectivity profile | 0.41
CC(=O)c1ccc2c(c1)CC[C@@H]1[C@@H]2CC[C@]2(C)[C@@H](O)CC[C@@H]12 [PRU-12] |  |  |  |  | 18.86 | 50.29 |  |  | Neither an activating nor a blocking effect | further improved selectivity profile compared to EDME; also recorded: good TRPML isoform selectivity profile | 0.28
